Here are results for 32 molecules from patent US20230183179A1, “NOVEL CELL METABOLISM MODULATING COMPOUNDS AND USES THEREOF” (CRESCENTA BIOSCIENCES, priority 2020, published 2023).

The first experiment has as its system differentiated 3T3-L1 mouse adipocyte cells. Description: Adipocyte glucose consumption in differentiated 3T3-L1 cells (colorimetric glucose assay of the medium). Format: cell-based. Particulars: 3T3-L1, 24 h, compound 10 μM, loss of glucose from culture medium, mean fold change (compound/DMSO). As to the method:
Activity of compounds on adipocyte glucose consumption was tested in differentiated 3T3-L1 mouse adipocyte cells. 3T3-L1 preadipocytes (ATCC) were routinely cultured in a growth medium composed of DMEM high-glucose (Sigma), 10% FBS (Gibco), 10 U/ml penicillin and 10 μg/ml streptomycin (P/S; Gibco). To induce adipogenic differentiation, a confluent layer of 3T3-L1 cells were incubated with the growth medium containing 2 μM rosiglitazone, 1 μM dexamethasone, 500 μM IBMX, and 1 μg/ml insulin (Sigma). Forty-eight (48) hours later (on day 2) and on days 4 and 6, medium of the cells was replaced with fresh medium containing 1 μg/ml insulin. On days 8 and 10, the medium was refreshed with regular growth medium and addition of insulin was omitted. On day 11, medium of the cells were 10 replaced with fresh medium containing either the indicated compounds (10 μM) or the vehicle in which the compounds were dissolved (DMSO). The final concentration of DMSO was 0.1% (v/v). Growth medium containing 0.1% DMSO was incubated in culture wells containing no cells and used as control. 24 hours later, medium was harvested and subjected to centrifugation at 10,000 g for 5 min. Glucose concentration in the supernatants was determined using a 15 colorimetric assay (Glucose Assay Kit I, Eton Biosciences). Glucose consumption in compound and vehicle treated cells was measured as loss of glucose from the culture medium and represented as mean fold change (compound/DMSO)±standard deviation (SD).
The molecule `CCCCc1ccc2nc(N(C)CC(=O)O)cc(-c3ccccc3)c2c1` [2-[(6-butyl-4-phenylquinolin-2-yl)(methyl)amino]acetic acid] came in with a fold induction at 10 µM of 1.37.

With `CCCCCCc1ccc2nc(N(C)CC(=O)O)cc(-c3ccccc3F)c2c1` [2-{[4-(2-fluorophenyl)-6-hexylquinolin-2-yl](methyl)amino}acetic acid], the fold induction at 10 µM was determined as 1.26.

`CCCCCCCc1ccc2nc(N(C)CC(=O)O)cc(-c3ccccc3)c2c1` [2-[(6-heptyl-4-phenylquinolin-2-yl)(methyl)amino]acetic acid] gave a fold induction at 10 µM of 1.4.

`CCCCCCc1ccc2nc(N(C)CC(=O)NCCO)cc(-c3ccccc3)c2c1` [2-[(6-hexyl-4-phenylquinolin-2-yl)(methyl)amino]-N-(2-hydroxyethyl)acetamide] came in with a fold induction at 10 µM of 1.11.

`CCCCCCc1ccc2nc(OC(C)C(=O)O)cc(-c3ccccc3)c2c1` (centres unmarked) [2-[(6-hexyl-4-phenylquinolin-2-yl)oxy]propanoic acid]: the fold induction at 10 µM came out at 1.25.

`CCCCCCc1ccc2nc(N3CCC(C(=O)O)C3)cc(-c3ccccc3)c2c1` (centres unmarked) [1-(6-hexyl-4-phenylquinolin-2-yl)pyrrolidine-3-carboxylic acid] came in with a fold induction at 10 µM of 1.24.

As to `CCc1ccc(-c2ccc3nc(N(C)CC(=O)O)cc(-c4ccccc4)c3c2)cc1` [2-{[6-(4-ethylphenyl)-4-phenylquinolin-2-yl](methyl)amino}acetic acid], the fold induction at 10 µM stood at 1.06.

As for `CN(CC(=O)O)c1cc(-c2ccccc2)c2cc(CCc3ccccn3)ccc2n1` [2-[methyl({4-phenyl-6-[2-(pyridin-2-yl)ethyl]quinolin-2-yl})amino]acetic acid], the fold induction at 10 µM was 1.39.

In turn, `CCCCCCc1ccc2nc(N(C)CC(=O)O)cc(-c3cccc(C#N)c3)c2c1` [2-{[4-(3-cyanophenyl)-6-hexylquinolin-2-yl](methyl)amino}acetic acid] showed a fold induction at 10 µM of 1.26.

Consider `CCCCCCc1ccc2nc([C@H]3C[C@H]3C(=O)O)cc(-c3ccccc3)c2c1` (relative stereo) [cis-2-(6-hexyl-4-phenylquinolin-2-yl)cyclopropane-1-carboxylic acid], for which the fold induction at 10 µM was found to be 1.36.

For the molecule `CCCCCCc1ccc2nc(/C=C3/SC(=O)NC3=O)cc(-c3ccccc3)c2c1` [5-[(6-hexyl-4-phenylquinolin-2-yl)methylidene]-1,3-thiazolidine-2,4-dione], the fold induction at 10 µM is 1.29.

Regarding `CCCCCCc1ccc2nc(C(C)CC(=O)O)cc(-c3ccccc3)c2c1` (centres unmarked) [3-(6-hexyl-4-phenylquinolin-2-yl)butanoic acid], the fold induction at 10 µM came out at 1.3.

In the case of `CN(CC(=O)O)c1cc(-c2ccccc2)c2cc(/C=C/c3ccccc3)ccc2n1` [2-[methyl({4-phenyl-6-[(1E)-2-phenylethenyl]quinolin-2-yl})amino]acetic acid], the fold induction at 10 µM is 1.21.

`CCCCCCc1ccc2nc(N(C)CC(=O)O)cc(-c3c(C)noc3C)c2c1` [2-{[4-(3,5-dimethyl-1,2-oxazol-4-yl)-6-hexylquinolin-2-yl](methyl)amino}acetic acid] had a fold induction at 10 µM of 1.22.

On to `CN(CC(=O)O)c1cc(-c2ccccc2)c2cc(CCc3ccccc3)ccc2n1` [2-{methyl [4-phenyl-6-(2-phenylethyl)quinolin-2-yl]amino}acetic acid], for which the fold induction at 10 µM came out at 1.48.

`CCCCCCc1ccc2nc(CC3SC(=O)NC3=O)cc(-c3ccccc3)c2c1` (centres unmarked) [5-[(6-hexyl-4-phenylquinolin-2-yl)methyl]-1,3-thi azolidine-2,4-dione] returned a fold induction at 10 µM of 1.33.

`CCCCCCc1ccc2nc(N(C)CC(=O)O)cc(-c3ccccc3C(=O)O)c2c1` [2-{2-[(carboxymethyl)(methyl)amino]-6-hexylquinolin-4-yl}benzoic acid] showed a fold induction at 10 µM of 1.17.

Molecule `CCCCCCc1ccc2nc([C@@H]3C[C@H]3C(=O)O)cc(-c3ccccc3)c2c1` (relative stereo) [trans-2-(6-hexyl-4-phenylquinolin-2-yl)cyclopropane-1-carboxylic acid] displayed a fold induction at 10 µM of 1.14.

For `CCCC/C=C/c1ccc2nc(N(C)CC(=O)O)cc(-c3ccccc3)c2c1` [2-({6-[(1E)-hex-1-en-1-yl]-4-phenylquinolin-2-yl}(methyl)amino)acetic acid], the fold induction at 10 µM turned out to be 1.32.

`O=C(O)C1CCN(c2cc(-c3ccccc3)c3cc(CCc4ccccc4)ccc3n2)C1` (centres unmarked) [1-[4-phenyl-6-(2-phenylethyl)quinolin-2-yl]pyrrolidine-3-carboxylic acid] gave a fold induction at 10 µM of 1.21.

Molecule `CCCCCCc1ccc2nc(N(C)CC(=O)O)cc(-c3cccc(C)c3)c2c1` [2-{[6-hexyl-4-(3-methylphenyl)quinolin-2-yl](methyl)amino}acetic acid] came in with a fold induction at 10 µM of 1.11.

`CCCCc1ccc2nc(N(C)CCC(=O)O)cc(-c3ccccc3)c2c1` [3-[(6-butyl-4-phenylquinolin-2-yl)(methyl)amino]propanoic acid] registered a fold induction at 10 µM of 1.1.

In the case of `CCCCCCCCCCc1ccc2nc(N(C)CC(=O)O)cc(-c3ccc(F)cc3)c2c1` [2-{[6-decyl-4-(4-fluorophenyl)quinolin-2-yl](methyl)amino}acetic acid], the fold induction at 10 µM is 1.37.

`CCCCCCc1ccc2nc(NCC(=O)O)cc(-c3ccc(F)cc3)c2c1` [2-([4-(4-fluorophenyl)-6-hexylquinolin-2-yl]amino}acetic acid] gave a fold induction at 10 µM of 1.12.

Regarding `CCCCCCc1ccc2nc(N(C)c3nn[nH]n3)cc(-c3ccccc3)c2c1` [6-hexyl-N-methyl-4-phenyl-N-(2H-1,2,3,4-tetrazol-5-yl)quinolin-2-amine], the fold induction at 10 µM stood at 1.11.

`CCCCCCc1ccc2nc(N3CC(C(=O)O)C3)cc(-c3ccccc3)c2c1` [1-(6-hexyl-4-phenylquinolin-2-yl)azetidine-3-carboxylic acid] gave a fold induction at 10 µM of 1.27.

Another experiment deals with T1, His6 tagged human recombinant FABP4 (Homo sapiens, UniProt P15090).
T1 construct: purchased Cayman Chemicals 10009549
T1 sequence (P15090 whole entry): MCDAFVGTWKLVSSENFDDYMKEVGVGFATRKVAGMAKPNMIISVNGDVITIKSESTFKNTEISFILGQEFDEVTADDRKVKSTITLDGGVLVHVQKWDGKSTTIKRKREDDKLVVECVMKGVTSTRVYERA
Kind of experiment: FABP4 TR-FRET assay: displacement of fluorescent fatty acid BODIPY FL C12. Particulars: inhibition of BODIPY FL C12 binding to His6-FABP4; 1.2 μL of 1.085 mM compound in DMSO per well; triplicates, mean percent inhibition. From the text:
Activity of compounds with FABP4 was profiled using a Terbium (Tb) based time resolved fluorescence energy transfer (TR-FRET) assay. The assay measures the compound mediated displacement of the fluorescent fatty acid BODIPY FL C12 (Thermo Fisher; catalog number D3822) from His6 tagged human recombinant FABP4 (His6-FABP4; Cayman Chemicals, catalog number 10009549) via recording the energy transfer from TB donor molecule on anti-His6-tag antibody to acceptor BODIPY moiety. Briefly, compounds and BODIPY FL C12 were prepared at a concentration of 1.085 mM and 4.2 μM, respectively, in DMSO. 1.2 μL of each compound or DMSO (vehicle control) and 1.2 μL of BODIPY FL C12 were added into the wells of a 384-well black polypropylene plate. His6-FABP4 and Tb anti-His6 antibody were prepared in the assay buffer (25 mM Tris/HCl, pH 7.4, 0.4 mg/ml γ-globulins, 0.010% NP-40, 1 mM DTT) at a concentration of 83 nM and 49.6 nM, respectively. The protein and antibody solutions were then mixed at a ratio of 34:7 (v/v) and incubated on ice for 30 minutes. The assay was initiated by adding 41 μL of the resulting protein/antibody solution into the wells containing the compounds and BODIPY FL C12. The plate was centrifuged and incubated at room temperature for 10 min. The TR-FRET signals were recorded using an EnVision Multilabel plate reader (PerkinElmer; TB excitation 320 nm, BODIPY FL C12 emission 520 nm; TB emission 615 nm). Relative fluorescence ratio (520 nm*10,000/615 nm) were used to calculate the compound mediated inhibition of BODIPY C12 FL fatty acid binding to FABP4. The compounds were tested in triplicates and the results were represented as mean percent inhibition (compound*100/DMSO)±standard deviation (SD). Glucose consumption and FABP4 inhibition is shown below in Table 3 below. The compounds showing no inhibition of activity in the TR-FRET assay are marked as N.A. N.D. stands for “not determined”.
Regarding `CCN(CC)CCc1ccc2nc(N(C)CC(=O)O)cc(-c3ccccc3)c2c1` [2-({6-[2-(diethylamino)ethyl]-4-phenylquinolin-2-yl}(methyl)amino)acetic acid], the inhibition at 1085 µM (stock) worked out at 5.17%.

Regarding `CN(CC(=O)O)c1cc(-c2ccccc2)c2cc(CCN3CCc4ccccc4C3)ccc2n1` [2-[methyl({4-phenyl-6-[2-(1,2,3,4-tetrahydroisoquinolin-2-yl)ethyl]quinolin-2-yl})amino]acetic acid], the inhibition at 1085 µM (stock) worked out at 21.7%.

As to `CN(CC(=O)O)c1cc(-c2ccccc2)c2cc(CCN3CCc4ccccc43)ccc2n1` [2-({6-[2-(2,3-dihydro-1H-indol-1-yl)ethyl]-4-phenylquinolin-2-yl}(methyl)amino)acetic acid], the inhibition at 1085 µM (stock) stood at 76.3%.

Consider `CN(CC(=O)O)c1cc(-c2ccccc2)c2cc(CCN3CCC(O)CC3)ccc2n1` [2-({6-[2-(4-hydroxypiperidin-1-yl)ethyl]-4-phenylquinolin-2-yl}(methyl)amino)acetic acid], for which the inhibition at 1085 µM (stock) came to 14.3%.

In the case of `CN(CC(=O)O)c1cc(-c2ccccc2)c2cc(CCc3nc4ccccc4n3C)ccc2n1` [2-[methyl({6-[2-(1-methyl-1H-1,3-benzodiazol-2-yl)ethyl]-4-phenylquinolin-2-yl})amino]acetic acid], the inhibition at 1085 µM (stock) was found to be 30.3%.

For `CN(CC(=O)O)c1cc(-c2ccccc2)c2cc(CCN3CCCC3)ccc2n1` [2-[methyl({4-phenyl-6-[2-(pyrrolidin-1-yl)ethyl]quinolin-2-yl})amino]acetic acid], the inhibition at 1085 µM (stock) was found to be 2.04%.
